In US4119629A, “Certain azaphenoxathiin compounds” (priority 1977, dated 1978):
Like-named read-outs stand apart in the source and are kept apart here.

Columns and labels:
[1] = type: in vivo, mice; settings: 50 mg/kg
Source text: The following table illustrates utility of the compounds of the present invention as weight control agents.
Table of Weight Control Observed
With 1,5-bis(thiophenyl)-2-nitrobenzene
Animal (mg/kg) (grams) Date

[2] = Toxicity, survival time after im injection in DMSO; type: in vivo, mice
Source text: The following represents initial test observations for one of the above identified compounds.
Table of Toxicity Data for
1,5-bis(thiophenyl)-2-nitrobenzene* (2e)
Animal** (mg/kg im DMSO) Time (Days)
**All mice were tail-coded.
***Sacrificed at the end of 14 days.

[3] = Barbital sleeping time potentiation; type: in vivo; settings: control 125.4
Method: (§1) Further, the action of the drug at 200 mg/kg in the spontaneous motor activity test tends to reverse with greater activity observed (47%). An additional set of data was also acquired for this compound which was barbiturate induced sleeping time potentiation. […] Thus, compounds that may be prepared in accordance with Equation 3 above are: […]
(§2) Table of Barbiturate Sleeping Time Potentiation With
(§3) 7-Chloro-1-Azaphenoxathiin
(§4) Dose (mg/kg) Mean (min) SE (min)
Barbital Sleeping Time Potentiation

[4] = Spontaneous and forced motor activity tests; type: in vivo
Method: as §1

[5] = LD50 studies of 7-chloro-1-azaphenoxathiin; type: in vivo
Source text: Table of LD50 Studies of 7-chloro-1-azaphenoxathiin
Test Animal Survival Time
Group* Dose (mg/kg) (Days)
*All animals were tail-coded
**LD50; dependent on the toleration of the animal for this drug

[6] = Barbiturate induced sleeping time potentiation; type: in vivo; settings: in all cases
Method: as §1

[7] = Effect on body temp., heart rate, and respiration in rats; type: in vivo; settings: 100 mg/kg i.p.
Method: TABLE OF EFFECT OF 7-CHLORO-1-AZAPHENOXATHIIN 100 MG/KG I.P. ON
BODY TEMP., HEART RATE, AND RESPIRATION IN RATS

[8] = Hexobarbital sleeping time potentiation; type: in vivo; settings: control 58.5
Method: as §1, §2, §3
Hexobarbital Sleeping Time Potentiation
as §4

[9] = Preliminary toxicity testing of 7-nitro-1-azaphenoxathiin
Method: These tests were run simultaneously using chloropromazine as a control. This compound was tested at doses of 50, 100 and 200 mg/kg.

[10] = Strychnine anticonvulsant study; type: in vivo; settings: for Average Onset Time: saline control 3.10
Source text: TABLE OF STRYCHNINE ANTICONVULSANT STUDY
WITH 7-NITRO-1-AZAPHENOXATHIIN
Test Group Time (min) Deviation Error
______________________________________

Compound: O=[N+]([O-])c1ccc(Sc2ccccc2)cc1Sc1ccccc1 [1,5-bis(thiophenyl)-2-nitrobenzene]
- Weight ([1]; animal #5, 7/16/77): 16.0 grams
- Weight ([1]; animal #5, 7/17/77): 15.8 grams
- Weight ([1]; animal #5, 7/18/77): 16.0 grams
- Weight ([1]; animal #5, 7/19/77): 16.0 grams
- Weight ([1]; animal #5, 7/20/77): 16.0 grams
- Weight ([1]; animal #5, 7/21/77): 16.0 grams
- death resulting from decreased CNS activity [2]: death at higher doses

Compound: Clc1ccc2c(c1)Oc1cccnc1S2 [7-chloro-1-azaphenoxathiin]
- Barbital Sleeping Time, Mean ([3]; 25 mg/kg): 120.6 min
- Barbital Sleeping Time, Mean ([3]; 50 mg/kg): 155.1 min
- Barbital Sleeping Time, Mean ([3]; 100 mg/kg): 179.5 min
- greater activity observed in the spontaneous motor activity test ([4]; 200 mg/kg, action tends to reverse): 47%
- potency in both spontaneous and forced motor activity tests ([4]; compared with 7-nitro-1-azaphenoxathiin): somewhat more potent than the former
- Survival Time ([5]; 50 mg/kg, group 1, 14-day test period): 14 days
- Survival Time ([5]; 100 mg/kg, group 2, 14-day test period): 14 days
- Survival Time ([5]; 250 mg/kg, group 3, 14-day test period): 14 days
- Survival Time ([5]; 500 mg/kg, group 4, 14-day test period): 14 days
- survival of the 14-day test period ([5]; 750 mg/kg): several lived the 14-day test period
- Survival Time ([5]; 750 mg/kg, group 5, LD50, dependent on the toleration of the animal): 0 to 14 days
- Survival Time ([5]; 1,000 mg/kg, group 6): 0 days
- Survival Time ([5]; 1,500 mg/kg, group 7): 0 days
- LD50 ([5]; in vivo): ~750 mg/kg
- tolerability ([5]; test animals): generally well tolerated
- barbiturate induced sleeping times [6]: prolongation of barbiturate induced sleeping times
- H.R. ([7]; time 0, N 5): 331.2 Beats/Min
- Resp ([7]; time 0, N 5): 120.8 Breath/Min
- Temp ([7]; time 0, N 5): 38.5 °C
- H.R. ([7]; time 30, N 4): 314.0 Beats/Min
- H.R. Δ From Veh ([7]; time 30, N 4): -34.0 Beats/Min
- Resp ([7]; time 30, N 4): 101.2 Breath/Min
- Resp Δ From Veh ([7]; time 30, N 4): -33.1 Breath/Min
- Temp ([7]; time 30, N 4): 37.6 °C
- Temp Δ From Veh ([7]; time 30, N 4): -0.4 °C
- H.R. ([7]; time 60, N 4): 288.0 Beats/Min
- H.R. Δ From Veh ([7]; time 60, N 4): -36.0 Beats/Min
- Resp ([7]; time 60, N 4): 79.7 Breath/Min
- Resp Δ From Veh ([7]; time 60, N 4): -65.9 Breath/Min
- Temp ([7]; time 60, N 4): 36.8 °C
- Temp Δ From Veh ([7]; time 60, N 4): -2.4 °C
- H.R. ([7]; time 120, N 4): 273.0 Beats/Min
- H.R. Δ From Veh ([7]; time 120, N 4): -55.0 Beats/Min
- Resp ([7]; time 120, N 4): 70.0 Breath/Min
- Resp Δ From Veh ([7]; time 120, N 4): -49.2 Breath/Min
- Temp ([7]; time 120, N 4): 35.8 °C
- Temp Δ From Veh ([7]; time 120, N 4): -2.4 °C
- H.R. ([7]; time 180, N 4): 270.0 Beats/Min
- H.R. Δ From Veh ([7]; time 180, N 4): -66.0 Beats/Min
- Resp ([7]; time 180, N 4): 78.2 Breath/Min
- Resp Δ From Veh ([7]; time 180, N 4): -41.8 Breath/Min
- Temp ([7]; time 180, N 4): 35.4 °C
- Temp Δ From Veh ([7]; time 180, N 4): -3.4 °C
- H.R. ([7]; time 240, N 4): 289.0 Beats/Min
- H.R. Δ From Veh ([7]; time 240, N 4): -51.0 Beats/Min
- Resp ([7]; time 240, N 4): 82.3 Breath/Min
- Resp Δ From Veh ([7]; time 240, N 4): -33.0 Breath/Min
- Temp ([7]; time 240, N 4): 35.0 °C
- Temp Δ From Veh ([7]; time 240, N 4): -3.6 °C
- Hexobarbital Sleeping Time, Mean ([8]; 25 mg/kg): 79.8 min
- Hexobarbital Sleeping Time, Mean ([8]; 50 mg/kg, p<0.05): 81.9 min
- Hexobarbital Sleeping Time, Mean ([8]; 100 mg/kg, p<0.05): 104.4 min

Compound: O=[N+]([O-])c1ccc2c(c1)Oc1cccnc1S2 [7-nitro-1-azaphenoxathiin]
- toxicity [9]: surprisingly low toxicity
- activity as an anticonvulsant [10]: essentially no activity
- Average Onset Time ([10]; 50 mg/kg): 3.21 min
- Average Onset Time ([10]; 100 mg/kg): 3.06 min
- Average Onset Time ([10]; 200 mg/kg): 3.06 min
